Laboratory results: patent US6071919A, “Zwitterionic compositions and methods as biological response modifiers” (priority 1998, dated 2000)
Entries after “also recorded” stand apart in the source; their conditions may differ.

What was measured:
[1] = ADA: data of Schwarzenbach et al. (1955); cited from earlier work
cancer tumors = assay: Macrophage infiltration of tumors; assay type: in vivo, dogs
From the text: (§1) The amphoteric zwitterion compounds may be employed as active ingredients with other active ingredients, as well as other components and carriers typically used in pharmaceutical compositions; such as, but not limited to: buffers, stabilizers, dyes, antioxidants, dispersing agents, fillers, surfactants, silicones, bulking agents, pigments, salts, human or animal (natural or synthetic) cells and cellular components, antibiotics, drugs, vitamins, amino acids, proteins, serum and various other compounds and combinations thereof in varying amounts.

[2] = Antibiotic efficacy in vivo
cancer = assay: Treatment of cancer patients with HEPES alone; assay type: in vivo, human; details: 300 mg/kg to 1000 mg/kg daily
[3] = change of pKa per ° C.; cited from earlier work
hepatitis B = assay: Example Eleven: patient with chronic hepatitis B infection; assay type: in vivo, human; details: 5000 mg i.v., after thirty days
From the text: After thirty days, their bilirubin fell to 3.0 and other liver enzymes were reduced by 25 percent or more.

[4] = ADA: data of Schwarzenbach et al. (1955); cited from earlier work; remark: listed apart in the source
[5] = Example Eight: patient with organophosphate induced polyneuropathy; assay type: in vivo, human
Method: A person with organophosphate induced polyneuropathy (such as found in Agent Orange toxicity and/or Gulf War Syndrome) had significant numbness in both legs, decreased sensation in both hands, and decreased proprioception was given 8 mg/kg orally of zwitterionic piperazine (HEPES) for two weeks.

[6] = test system: bone marrow / extramedullary hematopoiesis; assay: Bone marrow and extramedullary hematopoiesis, in vivo tests; set-up: species or system dogs and humans
Method: Further, the zwitterionic compounds reduce the mean inhibitory concentration (MIC) of susceptible […] in culture (in vitro) and enhances antibiotic activity in vivo. The zwitterionic compound may be used alone or with a carrier, such as sterile water or a saline solution. Enhancement and inducement of extramedullary hematopoiesis has been found in amounts of HEPES administered in an amount of about 18-20 mg/kilograms or greater for e.g. 40 mg/kg of body weight in dogs with daily intravenous injections over a defined time period of 1-2 weeks.

[7] = ADA: data of Schwarzenbach et al. (1955); cited from earlier work; remark: listed apart in the source
[8] = test system: bone marrow / extramedullary hematopoiesis; assay: Example Seven: bone marrow and liver biopsy in healthy beagle dogs; assay type: in vivo; details: 18 mg/kg i.v. one week, then 40 mg/kg one week
Method: Five healthy beagle dogs (males and females) were given 18 mg/kg intravenously of zwitterionic piperazine compound (HEPES) for one week. The dose was increased to 40 mg/kg for one week. […] This is also consistent with immune stimulating effect.

[9] = cited from earlier work
[10] = test system: acute hymphocytic leukemia (ALL); assay: Example Sixteen: patient with acute lymphocytic leukemia in blast crisis; assay type: in vivo, human; details: for Hemoglobin (Hgb): pre-infusion 10.5; for Blasts: pre-infusion 45%; for Platelets: pre-infusion 31,000; for White Blood Cells (WBC): pre-infusion 38,000
From the text: A person presented with acute hymphocytic leukemia (ALL).
They were started on zwitterionic piperazine therapy (HEPES).
Her baseline laboratory data was obtained following a blood transfusion before starting the HEPES;

[11] = test system: gram negative staphylococci; assay: Example Twelve: MIC of antibiotics with and without HEPES, staphylococci; assay type: cell-based; details: agar gel cultures, colony counts of 10^6, with vs without HEPES
Method: (§2) Routine agar gel cultures are inoculated with beta-hemolytic streptococci and gram […] staphylococci. The cultures were raised to colony counts of 10^6. The mean inhibitory concentration (MIC) with susceptible antibiotics was measured with and without the presence of zwitterionic piperazine (HEPES).

[12] = test system: serum alkaline phosphatase; assay: Example Six: serum alkaline phosphatase in healthy canines; assay type: in vivo, canine; details: up to 500 mg/kg, five canines
Method: Five healthy canines were administered up to 500 mg/kg of HEPES.

[13] = test system: beta-hemolytic streptococci; assay: Example Twelve: MIC of antibiotics with and without HEPES, streptococci; assay type: cell-based; details: agar gel cultures, colony counts of 10^6, with vs without HEPES
Method: as §2

[14] = test system: giant platelets and histiocytes; assay: Giant platelets and histiocytes on peripheral smear; assay type: in vivo, animals; details: blood / peripheral smear
From the text: as §1

[15] = Treatment of rheumatoid arthritis patients with HEPES alone; assay type: in vivo, human; details: 300 mg/kg to 1000 mg/kg daily
Method: To date, more than twenty-five patients have been treated with 300 mg/kg to 1000 mg/kg HEPES daily (no other agents or additional compositions).

[16] = Example Fifteen: patient with seizure disorder, EEG; assay type: in vivo, human; details: 5000 mg orally (2500 mg twice a day), two weeks
Method: A person with a longstanding history of seizure disorder was poorly controlled and had recurrent seizures while taking Dilantin and phenobarbital. They started on 5000 mg zwitterionic piperazine orally (2500 mg twice a day) for two weeks. […] The zwitterionic piperazine (HEPES) has membrane stabilizing properties, is effective for anti-arrhythmic therapy, and is effective anti-seizure therapy.

alkaline phosphatase = assay: Decrease of alkaline phosphatase in mammals; assay type: in vivo
From the text: It is discovered that zwitterionic compounds, such as HEPES, decrease the production of alkaline phosphatase in mammals.

[17] = Example Fourteen: patient with ventricular irritability; assay type: in vivo, human; details: 3000 mg orally for seven days; baseline 4-6 per minute
Method: A person with ventricular irritability, 4-6 premature ventricular contractions per minute (PVCs), was not controlled with Prancetyl, Quinidine, or beta blockade. They were taking no medicines and was started on 3000 mg zwitterionic piperazine orally for seven days. At the end of seven days, the patient had only occasional PVC (1 every 10 minutes).

[18] = intravenous and oral application
[19] = 13.0 mg/kg I.V. increased to 80 mg/kg I.V.

## O=S(=O)(O)CCN1CCN(CCO)CC1 [HEPES, N-2 Hydroxyethylpiperazine-N'-2 Ethane Sulfonic Acid]
[1]
  Metal-Buffer Binding Constants Log KM, Mn^2+: Negl
Cancer tumors; administered to mammals
  macrocytic invasion of tumors: macrocytic invasion of tumors
Cancer tumors; dogs
  macrophage infiltration of cancer tumors: macrophage infiltration of cancer tumors in dogs
[2]
  antibiotic efficacy in vivo: enhanced the antibiotic efficacy in vivo
cancer; all patients with cancer
  decrease in tumor volume and/or tumor activity: 25%-50%
cancer; all patients with cancer pain
  cancer pain response: All patients with cancer pain have responded with pain reduction
[3]
  αpKa /° C.: -0.014
Hepatitis B
  reduction of other liver enzymes: ≥ 25%
Hepatitis B; baseline 5.0
  bilirubin level: 3.0
[4]
  Metal-Buffer Binding Constants Log KM, Cu^2+: Negl
[5]; 8 mg/kg orally
  myelin integrity / organic phosphate induced polyneuropathy: reversed the effect of organic phosphate induced polyneuropathy in the patient and restored myelin integrity
[5]; 8 mg/kg orally, end of two weeks
  sensation and proprioception: sensation and proprioception had returned
[5]; two weeks after reinstatement
  sensation and proprioception after reinstatement: sensation and proprioception were again restored
[5]; two weeks after stop
  symptoms after stopping the medicine: symptoms returned in two weeks
[6]; Canis lupus familiaris, iv, dogs, daily i.v., 1-2 weeks, "or greater", read-out: amount of HEPES giving enhancement and inducement of extramedullary hematopoiesis
  minimal effective dose: 18 to 20 mg/kg
[6]; [18]
  extramedullary hematopoiesis: induce extramedullary hematopoiesis in patients
  hypercellular bone marrow: induce hypercellular bone marrow
[7]
  Metal-Buffer Binding Constants Log KM, Mg^2+: Negl
[8]; all animals
  circulating histiocytes and giant platelets: increase in circulating histiocytes and giant platelets
[8]; all dogs
  bone marrow biopsy: the bone marrow became hypercellular
  liver biopsy (extramedullary hematopoiesis): presence of megakaryocyte production consistent with induced extramedullary hematopoiesis
[9]
  Saturated Solution at 0°: 2.25 M
[10]; [19]
  blast crisis: cessation of the blasts crisis
  platelet destruction: Platelet destruction has ceased
[10]; Day 3 of HEPES treatment
  Hemoglobin (Hgb): 8.5 g/dL
  Blasts: 45%
  Platelets: 14,000
  White Blood Cells (WBC): 53,000
[10]; Day 7 of HEPES treatment
  Hemoglobin (Hgb): 11.6 g/dL
  Blasts: 5.0%
  Platelets: 17,000
  White Blood Cells (WBC): 6,300
[11]
  decrease in MIC of each antibiotic in culture (in vitro): more than 10%
[12]
  serum alkaline phosphatase: not detected by standard laboratory methods in all canines
[13]
  decrease in MIC of each antibiotic in culture (in vitro): more than 10%
[14]
  giant platelets and histiocytes: production of giant platelets and histiocytes; also recorded: produces giant platelets and histiocytes in blood
[15]
  reduction in disease activity: 25%-50%
[16]
  EEG focal activity: significantly decreased focal activity
Alkaline phosphatase; in excess of 100 mg/kg to 500 mg/kg or greater
  fall of baseline alkaline phosphatase levels: fall by a factor of two or greater
Alkaline phosphatase; in excess of 100 mg/kg to 500 mg/kg or greater, some cases
  alkaline phosphatase measurability: not measurable by standard laboratory methods
Alkaline phosphatase; mammals
  concentration at which decrease of alkaline phosphatase appears to start: approximately 12 mg/kg
[17]
  premature ventricular contractions (PVC): 1 every 10 minutes
